Assays:
[1] = humans; cited from earlier work
[2] = cited from earlier work; for Tmax / Human PK T½: humans
[3] = Release profile (cumulative fraction released; USP II Paddle system, water); type: physicochemical; conditions: memantine-galantamine combination
Excerpt: The cumulative fraction is the amount of drug substance released from the formulation matrix to the serum or gut environment (e.g., U.S. Pat. No. 4,839,177) or as measured with a USP II Paddle system using water as the dissolution medium.

For `CCN(C)C(=O)Oc1cccc([C@H](C)N(C)C)c1` [EXELON ®/Rivastigmine], the “Main Dose-Dependent Adverse Event” value [1] is given as “Nausea, vomiting” and the “Tmax” value [2] is given as 1 to 2.5 h.

In the case of `C/C=C1\[C@H]2C=C(C)C[C@]1(N)c1ccc(=O)[nH]c1C2` [HUPERZINE-A], the “Human PK T½” value [2] is given as 4.8 h and the “Tmax” value [2] is given as 1.3 h.

Compound `CC12CC3CC(C)(C1)CC(N)(C3)C2` [Memantine, 1-amino-3,5-dimethyladamantane] has a cum. fraction ([3]; Time 1) of 0.2, a cum. fraction ([3]; Time 2) of 0.3 and a cum. fraction ([3]; Time 4) of 0.4. For the same compound, the cum. fraction ([3]; Time 8) was 0.5, the cum. fraction ([3]; Time 12) was 0.6 and the cum. fraction ([3]; Time 16) was 0.7. It also gave a cum. fraction ([3]; Time 20) of 0.8 and a cum. fraction ([3]; Time 24) of 0.9.

In the case of `COc1ccc2c3c1O[C@H]1C[C@@H](O)C=C[C@@]31CCN(C)C2` [REMINYL ®/Galantamine], the cum. fraction ([3]; Time 1) is reported as 0.2, the cum. fraction ([3]; Time 2) is reported as 0.3 and the cum. fraction ([3]; Time 4) is reported as 0.4. The cum. fraction ([3]; Time 8) was 0.5, the cum. fraction ([3]; Time 12) was 0.6 and the cum. fraction ([3]; Time 16) was 0.7. The cum. fraction ([3]; Time 20) was 0.8, the cum. fraction ([3]; Time 24) was 1.0 and the T½ ([2]; head of Table 4) was “T½ = 7 hrs”. The “Human PK T½” value [2] was 7 h and the “Tmax” value [2] was 1 to 2.5 h.

For `CC(N)C12CC3CC(CC(C3)C1)C2` (stereo not drawn) [Rimantadine, 1-(1-aminoethyl)adamantane], the “Dose Dependent Tox” value [1] is given as “Insomnia”.
